Assay [1] can be described thus: Novelty Suppressed Feeding Test (NSFT), separated BALB/c mice. Format: in vivo. The settings on record: compounds 1 mg/kg i.p., day 9. The protocol: (§1) Novelty suppressed feeding test (NSFT): After the last treatment injection, all food is removed from the cage for 24 hours (water available ad libitum). At the end of this time, the animal is introduced into a 50×50×20 (height) cm wooden arena the floor of which is marked with equal rectangles of 10×10 cm. A pellet of food is placed on an elevated surface in the center of the arena. The time elapsing from the introduction of the animal into the arena until it commences eating (latency to feed) is recorded. The animal is removed from the arena immediately after it begins to eat or after not doing so for 5 min. During the test, the number of lines crossed by the animal is counted as a measure of motor activity, and calibrated for 5 min if the animal started eating before that. After the test, the animal is immediately transferred to its home cage and left to consume a previously weighed amount of food for 10 minutes. On completion of this period the food is weighed again to calculate the home cage food consumption.
50, 2 month old female BALB/c mice, 10 mice per group, on ad libitum diet were separated (each mouse in a different cage) for 9 days (Separation Stress, a model for depression). On the 7, 8, 9, 34-40, days mice were administered with either vehicle or compounds x, 12 and 15 (1 mg/kg i.p.) or imipramine 10 mg/kg (antidepressant) i.p. and tested in Novel Suppressed Feeding Test on day 9.
as §1, with “FIGS. 9A-9C show the results of the NSFT. […]” for “Novelty suppressed feeding test (NSFT):”, “hours.” for “hours (water available ad libitum).”, “into” for “into a 50×50×20 (height) cm wooden arena”, “open field test.” for “floor of which is marked with equal rectangles of 10×10 cm.”, “to find” for “elapsing from”, “food was” for “introduction of the animal into the arena until it commences eating (latency to feed) is”

Assay [2] in a line: Forced Swim Test, compound X dose study. The settings on record: day 11. Format: in vivo, BALB/c mice. As for the experimental part: Forced swim test (FST): The animal is placed in a circular, transparent, plexiglass tank measuring 21 cm in diameter and 46 cm in height containing water 15 cm high, maintained at 23-25° C. […] Also measured is the latency period, the time elapsing, for each animal from immersion in the water tank until the first occurrence of immobility. Since climbing activity is minimal in mice, […].
50, 2 month old BALB/c mice, 10 mice per group, on ad libitum diet were divided to 5 experimental groups with equal weight. On the 2, 3, 4, 5, 9, 11, 16, 18, 23, 25, 29, 31 days mice were administered with either vehicle or compound X 0.1, 1, 10 mg/kg i.p. or imipramine 10 mg/kg. Forced Swim Test was evaluated on day 11.

Assay [3] has as its system Norepinephrine (NE) levels. Put plainly: Norepinephrine (NE) determination in brain tissue by HPLC with electrochemical detection. Format: in vivo, mice. The settings on record: for NE: ng/g wet tissue +/− SEM; for norepinephrine levels in the hippocampus vs. control / norepinephrine levels in the hypothalamus vs. control: result in words. The protocol:
Solution of DHBA as internal standard in the concentration of: 1 μg/ml in 0.1M perchloric acid, were prepared. Standard solutions of NE and 5HT in the concentration of 1-0.1 μg/ml in 0.1M perchloric acid were prepared.
Tissues (hypothalamus and hippocampus) obtained from 6-8 mice were dissected on ice surface and kept at −80 C. Hypothalamus (HT) or hippocampus (HC) from 1 mice were weighted (weight of HT −10-20 mg, HC 30-40 mg) and placed in eppendorf micro-centrifuge tube, 1.5 ml. To each tube was added 120-160 μl of ice cold solution of Perchloric acid and DHBA, homogenized in ice bath on Sonics vibra cell, 3×20 sec., 0.4 watts and centrifuged at 14,000×g at 4° C. 10 min. Supernatant gained was stored in ice before analysis.
The HPLC system consisted of Jasco PU-980 pump, Jasco AS-950-10 autosampler cooled at 4° C., H3 ODS-125A 3 μm 125 mm×4.6 mm i.d. analytical column (Hichrom, UK) were used. Electrochemical detector Coulochem ESA 5100A with analytical cell model 5011 was used for control detector voltage and record the current. Working electrode was set at potential +350 mV. Control and data collection/processing were handled through Borwin chromatography software.
The mobile phase composition: A stock buffer was prepared as follows: 20 mM sodium dihydrogenorthophosphate, EDTA 3 mg/l, 1-heptanesulfonic acid 1 g/l were dissolved in 1 liter deionized distilled water and buffered to pH 3.7 using concentrated phosphoric acid. To prepare the mobile phase buffer was mixed with acetonitrile (Baker HPLC analyzed) in the ratio 85:15 (v/v), filtered through a 0.2 μm membrane filter and degassed under vacuum after mixing. Mobile phase flow rate 1 ml/min. Injection volume 20 μl, retention time for DHBA 4.2 min., norepinephrine—3.1 min., 5HT 8.6 min. For calibration curve 1 ug/ml solution of DHBA together with 1.0-0.1 μg/ml solutions of 5HT and NE were used. The ratio between 5HT or NE and DHBA used to calculate the level of 5HT and NE in the sample. Date are given in ng/g wet tissue +/−SEM.

Assay [4] in a line: Body weight of C57BL/6 mice. Format: in vivo. An excerpt: Thus the compounds of the invention can be used to treat conditions that are mediated by the enhancement of leptin levels. In obesity there is high leptin level however the leptin receptors are not responding. High CNS leptin level has anti-depression effect however, if there is tolerance there is no anti depression effect.

A further assay deals with NPY protein. The assay can be described thus: NPY protein expression by western blot. Format: in vivo, BALB/c mice. The settings on record: FIG. 13. The protocol:
50, 2 month old female BALB/c mice, 10 mice per group, on ad libitum diet were separated (each mouse in a different cage) for 9 days (Separation Stress, a model for depression). On the 7, 8, 9, 34-40 days mice were administered with either vehicle or compounds X, 12 and 15 (1 mg/kg i.p.) or imipramine 10 mg/kg (antidepressant).

Assay [5] is described as follows: Weight and food consumption in Sabra mice. Format: in vivo. The protocol:
140 Female Sabra Mice 12 weeks old are divided to […] 10 mice in each group with equal weight. Mice are administered I.P. with either saline or 1 mg/kg Fluoxetine (PROZAC), compound 1, 4, 5, 7, 10, 11, 12, 13, 14, 15, 19, 26 for a 4 weeks period. On day 30 and on, mice were tested by the following behavioral tests. […]

The structures appear in SMILES notation. Read-outs that look alike come from different tables or passages of the source.

`CCCCCCCC/C=C\CCCCCCCC(=O)N[C@H](CO)C(C)C` [Compound 1, oleoyl-L-valinol amide]: the “food intake in NSFT” value in assay [1] (in relation to vehicle and more than imipramine 10 mg/kg) is given as “significantly enhanced food intake”. Moreover, in assay [1] (resembled imipramine 10 mg/kg), the “motor activity in NSFT” value is “enhanced motor activity”. Besides, the “swimming activity in forced swim test” value is listed as “improved significantly swimming activity” in assay [2] (0.1 mg/kg i.p.); “improved significantly swimming activity” in assay [2] (1 mg/kg i.p., better than imipramine 10 mg/kg); “improved significantly swimming activity” in assay [2] (10 mg/kg i.p., better than imipramine 10 mg/kg). The “NE” value in assay [3] (Hippocampus) came to 283.28 ± 24 ng/g; in assay [3] (Hypothalamus) it was 1090 ± 10.4 ng/g. For the same compound, the “norepinephrine levels in the hippocampus vs. control” value in assay [3] is given as “significantly enhanced”; in assay [3] (listed as X) it was “increase significantly”. For the same compound, the results for the “norepinephrine levels in the hypothalamus vs. control” value in assay [3] and in assay [3] (listed as X) were “significantly enhanced” and “increased significantly”, respectively. Moreover, the body weight result in assay [4] is “decreased body weight”. The “NPY protein expression in the hypothalamus” value in the assay on NPY protein is given as “decrease significantly”. Besides, the food consumption entry in assay [5] is reported as “significant decrease”. In addition, the “weight (weight loss)” value in assay [5] was “significant decrease”; in assay [5] (listed as OVA), “decreased body weight”; in assay [5] (listed as X), “significant weight loss”.
